Assay [1] relates to rat, CFA-induced thermal hypersensitivity. The experiment in a line: CFA-Induced Paw Radiant Heat Hypersensitivity. Type of assay: in vivo. To be noted: 30 mg/kg p.o., HPβCD, group mean values, last time point 180 or 300 min. The protocol:
Each rat was placed in a test chamber on a warm glass surface and allowed to acclimate for approximately 10 min. A radiant thermal stimulus (beam of light) was then focused through the glass onto the plantar surface of each hind paw in turn. The thermal stimulus was automatically shut off by a photoelectric relay when the paw was moved or when the cut-off time was reached (20 sec for radiant heat at ˜5 amps). An initial (baseline) response latency to the thermal stimulus was recorded for each animal prior to the injection of complete Freund's adjuvant (CFA). 24 h following intraplantar CFA injection, the response latency of the animal to the thermal stimulus was then re-evaluated and compared to the animal's baseline response time. […] Post-compound treatment withdrawal latencies were assessed at fixed time intervals, typically 30, 60, 120, 180, and 300 min.
The percent reversal (% R) of hypersensitivity was calculated in one of two different ways: 1) using group mean values or 2) using individual animal values. […]
For all compounds, the % R of hypersensitivity was calculated using the mean value for groups of animals at each time point according to the following formula: % reversal=[(group treatment response−group CFA response)/(group baseline response−group CFA response)]×100 Results are given for the maximum % reversal observed for each compound at any time point tested. […]

For assay [2], the target named is T1, mutant MGL (Homo sapiens, UniProt Q99685, L169S/L176S).
T1 sequence (Q99685 1-303 L169S/L176S): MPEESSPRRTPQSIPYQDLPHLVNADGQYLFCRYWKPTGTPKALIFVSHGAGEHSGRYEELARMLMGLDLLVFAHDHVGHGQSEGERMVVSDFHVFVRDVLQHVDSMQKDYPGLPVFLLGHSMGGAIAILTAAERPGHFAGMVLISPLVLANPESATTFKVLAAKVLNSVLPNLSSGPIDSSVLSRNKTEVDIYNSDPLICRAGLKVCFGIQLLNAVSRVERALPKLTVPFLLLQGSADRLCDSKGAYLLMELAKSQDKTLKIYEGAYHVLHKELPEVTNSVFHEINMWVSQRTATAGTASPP
The assay is described as follows: MGL ThermoFluor Assay-Mutant. To be noted: read-out: MGL mutant ThermoFluor qKd (using qNMR conc.), compound concentration measured by qNMR.
Protocol: The ThermoFluor (TF) assay is a 384-well plate-based binding assay that measures thermal stability of proteins^1,2. […] TF dye used in all experiments was 1,8-ANS (Invitrogen: A-47). Final TF assay conditions used for MGL studies were 0.07 mg/ml of mutant MGL, 100 μM ANS, 200 mM NaCl, 0.001% Tween-20 in 50 mM PIPES (pH=7.0).
Screening compound plates contained 100% DMSO compound solutions at a single concentration. […] Columns 12 and 24 were used as DMSO reference and contained no compound. […] Following compound dispension, protein and dye solutions were added to achieve the final assay volume of 3 μL.
Bar-coded assay plates were robotically loaded onto a thermostatically controlled PCR-type thermal block and then heated from 40 to 90° C. degrees at a ramp-rate of 1° C./min for all experiments. Fluorescence was measured by continuous illumination with UV light (Hamamatsu LC6), supplied via fiber optics and filtered through a band-pass filter (380-400 nm; >6 OD cutoff). Fluorescence emission of the entire 384-well plate was detected by measuring light intensity using a CCD camera (Sensys, Roper Scientific) filtered to detect 500±25 nm, resulting in simultaneous and independent readings of all 384 wells. […]

For `O=C(c1ccc(-c2cccc(C(F)(F)F)c2)c(Cl)c1)N1CC(N2CCN(C(=O)c3cscn3)CC2)C1` [Cpd 1102], the “Method 1: peak % reversal” value in assay [1] was found to be 38%. In the case of `Cc1nc(C(=O)N2CCN(C3CN(C(=O)c4ccc(-c5cccc(C(F)(F)F)c5)cc4)C3)CC2)cs1` [Cpd 1217, 1-[(2-Methyl-l,3-thiazol-4-yl)carbonyl]-4-(1-{[3′-(trifluoromethyl)biphenyl-4-yl]carbonyl}azetidin-3-yl)piperazine], the Kd in assay [2] came out at 104 nM.

The values are drawn from patent US8722658B2, “Azetidinyl diamides as monoacylglycerol lipase inhibitors” (Janssen Pharmaceutica, NV, priority 2009, dated 2014).
